# Experimental data reported in PubChem BioAssay AID1745844 (Carcinogenic Potency Database (CPDB), 2022).
# Values joined by “and” are separate entries in the source; they are usually repeats but may differ in a detail not shown here. Equal values may be shown once. Active and inactive are the calls of the source. How the calls were made is not given here.
# Tested on: rodent lifetime carcinogenesis bioassay, tumor incidence TD50
# Assay: carcinogenic potency in animals, long-term in vivo studies, CPDB compilation (AID 1745844)
smiles,measurement,setting,value
CN(CCCO)N=O,TD50,"rat, strain Fischer 344, females, by gavage, site: liver, lesion: neoplastic nodule, dosed 130 weeks, study length 130 weeks",3.48 mg/kg/day
same,TD50,"rat, strain Fischer 344, females, by gavage, site: lung, lesion: alveolar/bronchiolar adenoma, dosed 130 weeks, study length 130 weeks",14.4 mg/kg/day
same,TD50,"rat, strain Fischer 344, females, by gavage, site: lung, lesion: alveolar/bronchiolar carcinoma, dosed 130 weeks, study length 130 weeks",24.9 mg/kg/day
same,TD50,"rat, strain Fischer 344, females, by gavage, site: lung, lesion: several types, types named in the paper, dosed 130 weeks, study length 130 weeks",8.06 mg/kg/day
same,TD50,"rat, strain Fischer 344, males, by gavage, site: liver, lesion: neoplastic nodule, dosed 130 weeks, study length 130 weeks",4.78 mg/kg/day
same,TD50,"rat, strain Fischer 344, males, by gavage, site: lung, lesion: alveolar/bronchiolar adenoma, dosed 130 weeks, study length 130 weeks",8.46 mg/kg/day
same,TD50,"rat, strain Fischer 344, males, by gavage, site: lung, lesion: alveolar/bronchiolar carcinoma, dosed 130 weeks, study length 130 weeks",2.46 mg/kg/day
same,TD50,"rat, strain Fischer 344, males, by gavage, site: lung, lesion: several types, types named in the paper, dosed 130 weeks, study length 130 weeks",1.09 mg/kg/day
same,TD50,"rat, strain Fischer 344, males, by gavage, site: testis, lesion: interstitial-cell tumor, dosed 130 weeks, study length 130 weeks",2.26 mg/kg/day
CN(N=O)c1ccccc1,TD50,"rat, strain Chester Beatty albino, females, in drinking water, site: esophagus, lesion: benign tumor, dosed 67 weeks, study length 67 weeks",32 mg/kg/day
same,carcinogen call,"rat, strain Chester Beatty albino, females, in drinking water, site: esophagus, lesion: several types, types named in the paper, dosed 67 weeks, study length 67 weeks",positive
same,TD50,"rat, strain Chester Beatty albino, females, in drinking water, site: esophagus, lesion: squamous-cell carcinoma, dosed 67 weeks, study length 67 weeks",26.4 mg/kg/day
same,carcinogen call,"rat, strain Chester Beatty albino, females, in drinking water, site: liver, lesion: one or several types, types not named, dosed 67 weeks, study length 67 weeks",negative (inactive)
same,TD50,"rat, strain Chester Beatty albino, males, in drinking water, site: esophagus, lesion: benign tumor, dosed 60 weeks, study length 60 weeks",70.4 mg/kg/day
same,TD50,"rat, strain Chester Beatty albino, males, in drinking water, site: esophagus, lesion: several types, types named in the paper, dosed 60 weeks, study length 60 weeks",5.27 mg/kg/day
same,TD50,"rat, strain Chester Beatty albino, males, in drinking water, site: esophagus, lesion: squamous-cell carcinoma, dosed 60 weeks, study length 60 weeks",10.5 mg/kg/day
same,carcinogen call,"rat, strain Chester Beatty albino, males, in drinking water, site: liver, lesion: one or several types, types not named, dosed 60 weeks, study length 60 weeks",negative (inactive)
same,TD50,"rat, strain Fischer 344, females, in drinking water, site: esophagus, lesion: carcinoma, dosed 50 weeks, study length 114 weeks",0.458 mg/kg/day
same,TD50,"rat, strain Fischer 344, males, in drinking water, site: esophagus, lesion: several types, types named in the paper, dosed 50 weeks, study length 114 weeks",0.272 mg/kg/day
same,TD50,"rat, strain Sprague-Dawley, both sexes, in drinking water, site: esophagus, lesion: several types, types named in the paper, dosed 104 weeks, study length 104 weeks",0.0343 mg/kg/day
Cc1ccccc1N,TD50,"mouse, strain B6C3F1, females, in feed, site: any site (literature study), lesion: several types, types named in the paper, dosed 102 weeks, study length 102 weeks",1350 mg/kg/day
same,TD50,"mouse, strain B6C3F1, females, in feed, site: liver, lesion: hepatocellular adenoma + hepatocellular carcinoma + neoplastic nodule, dosed 102 weeks, study length 102 weeks",754 mg/kg/day
same,TD50,"mouse, strain B6C3F1, females, in feed, site: liver, lesion: hepatocellular adenoma + hepatocellular carcinoma, dosed 102 weeks, study length 102 weeks",754 mg/kg/day
same,TD50,"mouse, strain B6C3F1, females, in feed, site: liver, lesion: hepatocellular carcinoma, dosed 102 weeks, study length 102 weeks",1520 mg/kg/day
same,TD50,"mouse, strain B6C3F1, males, in feed, site: all sites, lesion: hemangioma + hemangiosarcoma, dosed 102 weeks, study length 102 weeks",926 mg/kg/day
same,TD50,"mouse, strain B6C3F1, males, in feed, site: all sites, lesion: hemangiosarcoma, dosed 102 weeks, study length 102 weeks",1220 mg/kg/day
same,TD50,"mouse, strain B6C3F1, males, in feed, site: liver, lesion: hepatocellular adenoma + hepatocellular carcinoma + neoplastic nodule, dosed 102 weeks, study length 102 weeks",12700 mg/kg/day
same,TD50,"mouse, strain CD-1 HaM/ICR, females, in feed, site: all sites, lesion: all vascular tumors, dosed 68 weeks, study length 90 weeks",1240 mg/kg/day
same,TD50,"mouse, strain CD-1 HaM/ICR, females, in feed, site: any site (literature study), lesion: several types, types named in the paper, dosed 68 weeks, study length 90 weeks",699 mg/kg/day
same,TD50,"mouse, strain CD-1 HaM/ICR, females, in feed, site: liver, lesion: several types, types named in the paper, dosed 68 weeks, study length 90 weeks",1650 mg/kg/day (inactive)
same,carcinogen call,"mouse, strain CD-1 HaM/ICR, females, in feed, site: lung, lesion: several types, types named in the paper, dosed 68 weeks, study length 90 weeks",negative (inactive)
same,TD50,"mouse, strain CD-1 HaM/ICR, males, in feed, site: all sites, lesion: all vascular tumors, dosed 68 weeks, study length 90 weeks",646 mg/kg/day and 660 mg/kg/day
same,TD50,"mouse, strain CD-1 HaM/ICR, males, in feed, site: any site (literature study), lesion: several types, types named in the paper, dosed 68 weeks, study length 90 weeks",325 mg/kg/day
same,TD50,"mouse, strain CD-1 HaM/ICR, males, in feed, site: liver, lesion: several types, types named in the paper, dosed 68 weeks, study length 90 weeks",1400 mg/kg/day (inactive)
same,TD50,"mouse, strain CD-1 HaM/ICR, males, in feed, site: lung, lesion: several types, types named in the paper, dosed 68 weeks, study length 90 weeks",1160 mg/kg/day (inactive)
same,TD50,"rat, strain Charles River CD (Sprague-Dawley), males, in feed, site: any site (literature study), lesion: several types, types named in the paper, dosed 64 weeks, study length 68 weeks",36.1 mg/kg/day
same,TD50,"rat, strain Charles River CD (Sprague-Dawley), males, in feed, site: liver, lesion: several types, types named in the paper, dosed 64 weeks, study length 68 weeks",2960 mg/kg/day (inactive)
same,TD50,"rat, strain Charles River CD (Sprague-Dawley), males, in feed, site: subcutaneous tissue, lesion: several types, types named in the paper, dosed 64 weeks, study length 68 weeks",36.7 mg/kg/day and 38.8 mg/kg/day
same,TD50,"rat, strain Charles River CD (Sprague-Dawley), males, in feed, site: urinary bladder, lesion: several types, types named in the paper, dosed 64 weeks, study length 68 weeks",131 mg/kg/day
same,TD50,"rat, strain Fischer 344, females, in feed, site: any site (literature study), lesion: several types, types named in the paper, dosed 104 weeks, study length 104 weeks",75.8 mg/kg/day
same,TD50,"rat, strain Fischer 344, females, in feed, site: mammary gland + multiple organs + spleen + urinary bladder, lesion: adenoma, NOS + fibroadenoma + angiosarcoma + fibrosarcoma + osteosarcoma + sarcoma, NOS + transitional-cell carcinoma + transitional-c, dosed 104 weeks, study length 104 weeks",77.9 mg/kg/day
same,TD50,"rat, strain Fischer 344, females, in feed, site: mammary gland, lesion: adenoma, NOS + fibroadenoma, dosed 104 weeks, study length 104 weeks",119 mg/kg/day
same,TD50,"rat, strain Fischer 344, females, in feed, site: mammary gland, lesion: fibroadenoma, dosed 104 weeks, study length 104 weeks",115 mg/kg/day
same,TD50,"rat, strain Fischer 344, females, in feed, site: multiple organs, lesion: angiosarcoma + fibrosarcoma + osteosarcoma + sarcoma, NOS, dosed 104 weeks, study length 104 weeks",332 mg/kg/day
same,TD50,"rat, strain Fischer 344, females, in feed, site: multiple organs, lesion: osteosarcoma, dosed 104 weeks, study length 104 weeks",423 mg/kg/day
same,TD50,"rat, strain Fischer 344, females, in feed, site: spleen, lesion: angiosarcoma + osteosarcoma + sarcoma, NOS, dosed 104 weeks, study length 104 weeks",337 mg/kg/day
same,TD50,"rat, strain Fischer 344, females, in feed, site: spleen, lesion: angiosarcoma, dosed 104 weeks, study length 104 weeks",450 mg/kg/day
same,TD50,"rat, strain Fischer 344, females, in feed, site: urinary bladder, lesion: transitional-cell carcinoma + transitional-cell papilloma, dosed 104 weeks, study length 104 weeks",175 mg/kg/day
same,TD50,"rat, strain Fischer 344, females, in feed, site: urinary bladder, lesion: transitional-cell carcinoma, dosed 104 weeks, study length 104 weeks",185 mg/kg/day
same,TD50,"rat, strain Fischer 344, males, in feed, site: any site (literature study), lesion: several types, types named in the paper, dosed 102 weeks, study length 104 weeks",24.4 mg/kg/day
same,TD50,"rat, strain Fischer 344, males, in feed, site: liver, lesion: hepatocellular adenoma + hepatocellular carcinoma + neoplastic nodule, dosed 102 weeks, study length 104 weeks",645 mg/kg/day
same,TD50,"rat, strain Fischer 344, males, in feed, site: liver, lesion: several types, types named in the paper, dosed 72 weeks, study length 93 weeks",1000 mg/kg/day
same,TD50,"rat, strain Fischer 344, males, in feed, site: mammary tissue, wider than the gland, lesion: fibroadenoma, dosed 72 weeks, study length 93 weeks",149 mg/kg/day
same,TD50,"rat, strain Fischer 344, males, in feed, site: multiple organs + spleen + subcutaneous tissue + tunica vaginalis, lesion: angiosarcoma + fibrosarcoma + mesothelioma + osteosarcoma + sarcoma, NOS + fibroma, dosed 102 weeks, study length 104 weeks",23.3 mg/kg/day
same,TD50,"rat, strain Fischer 344, males, in feed, site: multiple organs + tunica vaginalis, lesion: mesothelioma, dosed 102 weeks, study length 104 weeks",97.4 mg/kg/day
same,TD50,"rat, strain Fischer 344, males, in feed, site: multiple organs, lesion: angiosarcoma + fibrosarcoma + osteosarcoma + sarcoma, NOS, dosed 102 weeks, study length 104 weeks",93.2 mg/kg/day
same,TD50,"rat, strain Fischer 344, males, in feed, site: multiple organs, lesion: fibrosarcoma, dosed 102 weeks, study length 104 weeks",184 mg/kg/day
same,TD50,"rat, strain Fischer 344, males, in feed, site: multiple organs, lesion: sarcoma, NOS, dosed 102 weeks, study length 104 weeks",394 mg/kg/day
same,TD50,"rat, strain Fischer 344, males, in feed, site: peritoneal cavity, lesion: spindle-cell sarcoma, dosed 72 weeks, study length 93 weeks",190 mg/kg/day
same,TD50,"rat, strain Fischer 344, males, in feed, site: skin, lesion: fibroma, dosed 72 weeks, study length 93 weeks",38.7 mg/kg/day
same,TD50,"rat, strain Fischer 344, males, in feed, site: spleen, lesion: fibroma, dosed 72 weeks, study length 93 weeks",167 mg/kg/day
same,TD50,"rat, strain Fischer 344, males, in feed, site: spleen, lesion: fibroma, dosed 102 weeks, study length 104 weeks",134 mg/kg/day
same,TD50,"rat, strain Fischer 344, males, in feed, site: subcutaneous tissue, lesion: fibroma, dosed 102 weeks, study length 104 weeks",33.3 mg/kg/day
same,TD50,"rat, strain Fischer 344, males, in feed, site: urinary bladder, lesion: several types, types named in the paper, dosed 72 weeks, study length 93 weeks",474 mg/kg/day
NC(=O)c1cnccn1,TD50,"mouse, strain B6C3F1, females, in feed, site: any site (literature study), lesion: several types, types named in the paper, dosed 78 weeks, study length 104 weeks",3430 mg/kg/day
same,TD50,"mouse, strain B6C3F1, females, in feed, site: liver, lesion: hepatocellular adenoma + hepatocellular carcinoma + neoplastic nodule, dosed 78 weeks, study length 104 weeks",10700 mg/kg/day
same,TD50,"mouse, strain B6C3F1, males, in feed, site: any site (literature study), lesion: several types, types named in the paper, dosed 78 weeks, study length 104 weeks",546 mg/kg/day (inactive)
same,TD50,"mouse, strain B6C3F1, males, in feed, site: liver, lesion: hepatocellular adenoma + hepatocellular carcinoma + neoplastic nodule, dosed 78 weeks, study length 104 weeks",5180 mg/kg/day
same,TD50,"rat, strain Fischer 344, females, in feed, site: any site (literature study), lesion: several types, types named in the paper, dosed 78 weeks, study length 104 weeks",182 mg/kg/day
same,TD50,"rat, strain Fischer 344, females, in feed, site: pituitary gland, lesion: chromophobe adenoma + chromophobe carcinoma, dosed 78 weeks, study length 104 weeks",178 mg/kg/day (inactive)
same,TD50,"rat, strain Fischer 344, males, in feed, site: any site (literature study), lesion: several types, types named in the paper, dosed 78 weeks, study length 104 weeks",284 mg/kg/day (inactive)
OCCO,carcinogen call,"mouse, strain B6C3F1, females, in feed, site: any site (literature study), lesion: several types, types named in the paper, dosed 103 weeks, study length 105 weeks",negative (inactive)
same,TD50,"mouse, strain B6C3F1, females, in feed, site: lung, lesion: alveolar/bronchiolar adenoma + alveolar/bronchiolar carcinoma, dosed 103 weeks, study length 105 weeks",11300 mg/kg/day
same,TD50,"mouse, strain B6C3F1, males, in feed, site: Harderian gland, lesion: adenoma + carcinoma, dosed 103 weeks, study length 104 weeks",19200 mg/kg/day (inactive)
same,TD50,"mouse, strain B6C3F1, males, in feed, site: any site (literature study), lesion: several types, types named in the paper, dosed 103 weeks, study length 104 weeks",9980 mg/kg/day
same,TD50,"mouse, strain B6C3F1, males, in feed, site: liver, lesion: hepatocellular adenoma + hepatocellular carcinoma + neoplastic nodule, dosed 103 weeks, study length 104 weeks",48100 mg/kg/day
CC(=O)OCC(=O)[C@@]12N=C(C)O[C@@H]1C[C@H]1[C@@H]3CCC4=CC(=O)C=C[C@]4(C)[C@H]3[C@@H](O)C[C@@]12C,TD50,"rat, strain Charles River CD (Sprague-Dawley), females, in feed, site: head, lesion: osteosarcoma, dosed 104 weeks, study length 104 weeks",66.8 mg/kg/day
same,carcinogen call,"rat, strain Charles River CD (Sprague-Dawley), males, in feed, site: bone, lesion: several types, types named in the paper, dosed 104 weeks, study length 104 weeks",positive
same,carcinogen call,"rat, strain Charles River CD (Sprague-Dawley), males, in feed, site: head, lesion: osteosarcoma, dosed 104 weeks, study length 104 weeks",positive
